Test results reported in publication PMC5601625, “Defining a therapeutic window for kinase inhibitors in leukemia to avoid neutropenia” (Oncotarget, 2017).
Entries after “also recorded” stand apart in the source; their conditions may differ. Like-named read-outs stand apart in the source and are kept apart here. Blank lines part the entries; values can stand above or below the molecule they belong to.

How the values were obtained:
[1] = test system: primary murine bone-marrow neutrophils; assay: Live cell imaging viability of primary bone-marrow neutrophils; details: for effect on mouse neutrophil viability (words): G-CSF- or GM-CSF-primed, inhibitors at 1 μM, over 24 hours
From the text: Using a high-throughput live cell imaging approach reported previously [15], we examined the effect of the kinase inhibitors on the viability of bone marrow neutrophils to determine their potential to cause neutropenia (Figure 2). Because G-CSF and GM-CSF are dominant regulators of granulopoiesis and neutrophil survival, and are commonly used in a clinical setting to mobilize hematopoietic stem cells into the blood and increase neutrophil production [27–31], we treated cells with these cytokines immediately prior to drug exposure. The addition of either cytokine prevents constitutive neutrophil apoptosis thereby increasing the window for detection of changes in viability induced by drug treatments.
For all above, data represent mean ± SEM from three independent samples.
Mouse bone marrow neutrophils were prepared as described [15]. Neutrophils were resuspended in phenol red-free DMEM/10% FBS for imaging studies. The purity of neutrophil preparations was routinely 96% ± 4% (Mean ± SD, n = 50) as assessed by cytology following May-Grünwald/Giemsa staining.
Kinase inhibitors were purchased from SYN kinase (Melbourne, Australia) and were used at 1 μM, unless otherwise specified, with dilutions performed in assay buffer containing 0.1% DMSO.
Viability was monitored using 2 μg/mL PI (Sigma). Images were captured every 30-60 min by the Zeiss Axiovert 200M Microscope at 37 °C/10% CO2. Quantitative analysis was performed using a custom-scripted MetaMorph (Molecular Devices) journal suite incorporating the count nuclei function, reconstruction & subtraction functions and Integrated Morphometry Analysis to select and analyze cells of interest.

KU-812 = assay: Cell Titer Glo cell viability assay, 48 h; type: cell-based, human; details: read-out: IC50 of inhibitors on cell lines, m (mean)
Method: (§1) The activity of the kinase inhibitor collection against a panel of human leukemia cell lines was determined in cell viability assays run over 48 h using the Cell Titer Glo reagent.
(§2) Figure 1 Effects of kinase inhibition on the proliferation of leukemia cells A. Human leukemia cell lines were treated with duplicate serial dilutions of kinase inhibitors and the effect on cell viability was determined by Cell Titer Glo assay after 48 hours. […] HL-60 cells were treated with serial dilutions of mTor/PI3K B. and MEK C. inhibitors and the effect on cell viability was determined after 48 hours. Data shown is the mean ± SEM of 3 independent experiments.
(§3) Leukemia and lymphoma cell lines were grown in RPMI containing 10% FCS. […] Cell lines are routinely tested for mycoplasma and genotyped by short tandem repeating (STR) profiling to confirm identity.
(§4) Compounds were obtained from SynMedChem and dissolved at […] in DMSO. Serial 2-fold dilutions of each compound were prepared in DMSO using a liquid handling robot (Janus, Perkin Elmer). Each dilution (100nL) was transferred to duplicate tissue culture plates containing 50 μL of media containing 5 × 10^3 cells using a 384 well pin tool. Cells were incubated for 48 h and cell viability was determined using Cell Titer Glow reagents as described by the manufacturer (Promega). Data was acquired using a luminescent plate reader (Envision, Perkin Elmer) and analysed using Activity Base (IDBS, Guilford, UK) and visualised using Spotfire (TIBCO, Palo Alto, CA) as described previously. Each cell line was assayed in independent experiments on at least two occasions. […] Serial 2-fold dilutions of each compound were prepared in media containing 0.2% DMSO and 50 μl of each dilution was added to 10^4 cells in 50 μl of media. Cells were incubated for 48 h and cell viability was determined using Cell Titer Glow assay as described above.

MOLT4 = assay: Cell Titer Glo cell viability assay, 48 h; type: cell-based, human; details: read-out: IC50 of inhibitors on cell lines, m (mean)
Method: as §1, §2, §3, §4

K562 = assay: Cell Titer Glo cell viability assay, 48 h; type: cell-based, human; details: read-out: IC50 of inhibitors on cell lines, m (mean)
Method: as §1, §2, §3, §4

MV4;11 = assay: Cell Titer Glo cell viability assay, 48 h; type: cell-based, human; details: read-out: IC50 of inhibitors on cell lines, m (mean)
Method: as §1, §2, §3, §4

OCI-AML3 = assay: Cell Titer Glo cell viability assay, 48 h; type: cell-based, human; details: read-out: IC50 of inhibitors on cell lines, m (mean)
Method: as §1, §2, §3, §4

U937 = assay: Cell Titer Glo cell viability assay, 48 h; type: cell-based, human; details: read-out: IC50 of inhibitors on cell lines, m (mean)
Method: as §1, §2, §3, §4

JURKAT = assay: Cell Titer Glo cell viability assay, 48 h; type: cell-based, human; details: read-out: IC50 of inhibitors on cell lines, m (mean)
Method: as §1, §2, §3, §4

EOL-1 = assay: Cell Titer Glo cell viability assay, 48 h; type: cell-based, human; details: read-out: IC50 of inhibitors on cell lines, m (mean)
Method: as §1, §2, §3, §4

HL-60 = assay: Cell Titer Glo cell viability assay, 48 h; type: cell-based, human; details: read-out: IC50 of inhibitors on cell lines, m (mean)
Method: as §1, §2, §3, §4

HEL.92.1.7 = assay: Cell Titer Glo cell viability assay, 48 h; type: cell-based, human; details: read-out: IC50 of inhibitors on cell lines, m (mean)
Method: as §1, §2, §3, §4

MEG-01 = assay: Cell Titer Glo cell viability assay, 48 h; type: cell-based, human; details: read-out: IC50 of inhibitors on cell lines, m (mean)
Method: as §1, §2, §3, §4

THP-1 = assay: Cell Titer Glo cell viability assay, 48 h; type: cell-based, human; details: read-out: IC50 of inhibitors on cell lines, m (mean)
Method: as §1, §2, §3, §4

[2] = Homo sapiens, 48 h, mean of 2 independent experiments, 0 = less than 10 nM, cell line not given
[3] = 48 h, mean of 2 independent experiments, 0 = less than 10 nM, cell line not given

Compound: Cc1cnc(Nc2ccc(OCCN3CCCC3)cc2)nc1Nc1cccc(S(=O)(=O)NC(C)(C)C)c1 [TG-101348]
effect on mouse neutrophil viability (words) [1]: cytotoxicity

Compound: Oc1cccc(-c2nc(N3CCOCC3)c3oc4ncccc4c3n2)c1 [PI103]
IC50 (KU-812; Homo sapiens, KU812, 48 h, mean of 2 independent experiments, 0 = less than 10 nM, cell line not given): 3.35 µM
IC50 (MOLT4; Homo sapiens, MOLT-4, 48 h, mean of 2 independent experiments, 0 = less than 10 nM, cell line not given): 210 nM
IC50 (K562; [2]): 2.29 µM
IC50 (MV4;11; [2]): 200 nM
IC50 (OCI-AML3; Homo sapiens, OCI-AML-3, 48 h, mean of 2 independent experiments, 0 = less than 10 nM, cell line not given): 160 nM
IC50 (U937; Homo sapiens, U-937, 48 h, mean of 2 independent experiments, 0 = less than 10 nM, cell line not given): 260 nM
IC50 (JURKAT; [2]): 0.96 µM
IC50 (EOL-1; Homo sapiens, EOL1, 48 h, mean of 2 independent experiments, 0 = less than 10 nM, cell line not given): 220 nM
IC50 (HL-60; [2]): 290 nM
IC50 (HEL.92.1.7; [2]): 1.89 µM
IC50 (MEG-01; [2]): 1.52 µM
IC50 (THP-1; [2]): 0.88 µM
effect on mouse neutrophil viability (words) [1]: some neutrophil toxicity

Compound: CCc1c2c(nc3ccc(O)cc13)-c1cc3c(c(=O)n1C2)COC(=O)[C@]3(O)CC [SN-38]
effect of chemotherapeutics on neutrophil viability ([1]; GM-CSF-primed, dose-dependent, Figure 5D): potently decreased neutrophil viability

Compound: CN1CC[C@H](c2c(O)cc(O)c3c(=O)cc(-c4ccccc4Cl)oc23)[C@H](O)C1 [Flavopiridol]
effect on mouse neutrophil viability (words) [1]: induced rapid cell death
effect on mouse neutrophil viability (words) ([1]; listed as flavopiridol): significant impact on neutrophil viability

Compound: Cc1cc(Nc2nc(N[C@@H](C)c3ncc(F)cn3)ncc2Cl)n[nH]1 [AZD1480]
effect on mouse neutrophil viability (words) [1]: significantly affected neutrophil viability
effect on mouse neutrophil viability (words) ([1]; listed as AZD-1480): cytotoxicity

Compound: CN(C)CC[C@H](CSc1ccccc1)Nc1ccc(S(=O)(=O)NC(=O)c2ccc(N3CCN(Cc4ccccc4-c4ccc(Cl)cc4)CC3)cc2)cc1[N+](=O)[O-] [ABT-737]
effect on mouse neutrophil viability (words) [1]: no impact on mouse neutrophil viability; also recorded: minimal effects on neutrophils

Compound: N#CCNC(=O)c1ccc(-c2ccnc(Nc3ccc(N4CCOCC4)cc3)n2)cc1 [CYT387]
effect on mouse neutrophil viability (words) [1]: did not

Compound: CC(=O)Nc1nc(C)c(-c2ccc(Cl)c(S(=O)(=O)NCCO)c2)s1 [PIK-93]
IC50 (KU-812): > 10 µM
IC50 (MOLT4): 2950 nM
IC50 (K562): 9.98 µM
IC50 (MV4;11): 1230 nM
IC50 (OCI-AML3): 1800 nM
IC50 (U937): 1290 nM
IC50 (JURKAT): 3.4 µM
IC50 (EOL-1): 390 nM
IC50 (HL-60): 2070 nM
IC50 (HEL.92.1.7): 8.14 µM
IC50 (MEG-01): > 10 µM
IC50 (THP-1): 7.05 µM

IC50 (MOLT4; [3]): 6990 nM
IC50 (K562; [3]): 9.65 µM
IC50 (MV4;11; [3]): 7330 nM
IC50 (OCI-AML3; [3]): 3880 nM
IC50 (U937; [3]): 2390 nM
IC50 (JURKAT; [3]): 3.94 µM
IC50 (HL-60; [3]): 4820 nM
IC50 (THP-1; [3]): 8.78 µM
Compound: Nc1ccc(C(=O)Nc2cccc(-c3nc(N4CCOCC4)c4oc5ncccc5c4n3)c2)cn1 [YM201636]
IC50 (KU-812; [3]): 4.28 µM
IC50 (EOL-1; [3]): 5880 nM
IC50 (HEL.92.1.7; [3]): 7.14 µM
IC50 (MEG-01; [3]): 9.12 µM

Compound: O=C(Nc1c[nH]nc1-c1nc2cc(CN3CCOCC3)ccc2[nH]1)NC1CC1 [AT9283]
effect on mouse neutrophil viability (words) [1]: significantly affected neutrophil viability
effect on mouse neutrophil viability (words) ([1]; listed as AT-9283): cytotoxicity

IC50 (MOLT4; [3]): > 10000 nM
IC50 (K562; [3]): 9.16 µM
IC50 (MV4;11; [3]): 650 nM
IC50 (OCI-AML3; [3]): 9720 nM
IC50 (U937; [3]): 9850 nM
IC50 (JURKAT; [3]): 9.84 µM
IC50 (HL-60; [3]): > 10000 nM
IC50 (THP-1; [3]): > 10 µM
Compound: Cc1cc(C(C)Nc2ccccc2)c2nc(N3CCOCC3)cc(=O)n2c1 (centres unmarked) [TGX221]
IC50 (KU-812; [3]): > 10 µM
IC50 (EOL-1; [3]): 430 nM
IC50 (HEL.92.1.7; [3]): > 10 µM
IC50 (MEG-01; [3]): > 10 µM
